Assay in all cases: NCI anticancer screen, dose series, 48 h
Assay [1] relates to COLO 205 colon.
Assay [2] concerns HCT-15 colon.
The subject of assay [3] is HOP-92 NSCLC.
Assay [4] has as its system LOX IMVI melanoma.
Assay [5] concerns MDA-MB-231 breast.
In assay [6] the test system is NCI-H226 lung.
The subject of assay [7] is NCI-H522 lung.
Assay [8] relates to SW-620 colon.
Assay [9] concerns T-47D breast.
The subject of assay [10] is UACC-62 melanoma.

Each structure is given as a SMILES string. Where “and” joins values, the source holds several entries; their conditions need not be identical. Equal entries are not always repeated.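 Values below derive from 48-hour exposures of cells grown in 96-well plates, with endpoints linearly interpolated between the two concentrations bracketing the appropriate inhibition level. GI50: concentration for 50% inhibition of growth. TGI: total growth inhibition.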

15 compounds from PubChem BioAssay (NCI) can be followed below.

Regarding `Cc1ccc(NCCN(C)C)c2c(=O)c3ccccc3sc12`, the GI50 is 1.29 µM in assay [1]; 2.21 µM in [2]; 1.04 µM in assay [3]; 1.61 µM in [4]; 1.69 µM in assay [5]; 1.83 µM in assay [6]. Besides, the GI50 in [7] was 1.89 µM; in [8], 1.46 µM; in assay [9], 1.82 µM; in assay [10], 1.69 µM. In addition, the TGI was found to be 2.65 µM in assay [1]; 6.53 µM in assay [2]; 4.41 µM in assay [3]; 3.45 µM in [4]; 3.73 µM in assay [5]; 3.96 µM in [6]. In addition, the TGI in assay [7] worked out at 5.38 µM; in assay [8], 3.02 µM; in assay [9], 4.96 µM; in assay [10], 3.29 µM.

On to `Cc1c(C(N)=O)sc2c1c(=O)n(Cc1ccccc1)c1nnc(-c3ccc(Br)cc3)n21`, for which the GI50 in [1] was 3.12 µM; in assay [2], 0.705 µM; in [3], 5.09 µM; in [4] it was 1.27 µM; in assay [5], 0.829 µM; in assay [6], 2.46 µM. In addition, the GI50 was 3.13 µM in assay [7], 2.98 µM in assay [8], 3.38 µM in assay [9] and 1.78 µM in assay [10]. The TGI came out at 15 µM in [1]; 17.9 µM in [2]; 21.3 µM in assay [3]; 10.2 µM in assay [4]; 18.6 µM in [5]; 9.82 µM in assay [6]. The TGI was 12.9 µM in assay [7], 18.9 µM in assay [8], 18.9 µM in assay [9] and 8.46 µM in [10].

Turning to `CC(=O)c1cc(C(=O)c2ccc3c(c2)Sc2ccccc2N3)c2c(C)cccn12`, the GI50 is 0.187 µM in assay [1]; 0.294 µM in assay [2]; 0.767 µM in [3]; 0.595 µM in assay [4]; 0.488 µM in assay [5]; 1.95 µM in assay [6]. The GI50 in assay [7] was 0.0328 µM; in assay [8], 0.265 µM; in [9] it was 0.314 µM; in assay [10], 0.145 µM. Besides, the TGI in [1] was 0.426 µM; in assay [2] it was > 100 µM; in assay [3], 22.6 µM; in [4], 4.61 µM; in assay [5], 10.6 µM; in assay [6] it was > 52.3 µM. In addition, the TGI in [7] was 0.199 µM; in [8], > 100 µM; in assay [9], > 68.5 µM; in [10] it was 38.1 µM.

Take `CCOC(=O)c1ccc2c(c1)[n+](=O)c(C(C)=O)c(C(F)(F)F)n2[O-]`: the GI50 in [1] is 1.54 µM; in [2], 1.4 µM; in assay [3], 1.4 µM; in assay [4], 1.47 µM; in assay [5] it was 1.75 µM; in [6], 1.8 µM. Also, the GI50 in assay [7] is 1.8 µM; in assay [8], 1.52 µM; in [9] it was 1.29 µM; in assay [10], 1.49 µM. The TGI in assay [1] is 3 µM; in assay [2], 3.22 µM; in assay [3], 2.86 µM; in assay [4], 3.12 µM; in assay [5], 3.62 µM; in assay [6] it was 3.93 µM. Further, the TGI in assay [7] is 3.84 µM; in [8], 3.26 µM; in [9], 3.06 µM; in [10], 3.46 µM.

Consider `NNC(=O)c1ccc(OCc2nc3ccccc3[nH]2)cc1`, for which the TGI in [1], in assay [2], in [3], in assay [4], in assay [5] and in [6] was > 100 µM each time. For the same compound, the TGI in assay [7], in assay [8], in assay [9] and in assay [10] was > 100 µM throughout.

As for `COc1cc2c(=O)n(CCN(C)C)c3c4cc5c(cc4ccc3c2cc1OC)OCO5`, the GI50 in assay [1] is 0.169 µM; in assay [2], 0.391 µM; in [3], 0.505 µM; in assay [4], 0.1 µM; in [5] it was 0.824 µM; in assay [6] it was 0.512 µM. In addition, the GI50 was 0.114 µM in assay [7], 0.239 µM in assay [8], 0.111 µM in assay [9] and 0.115 µM in [10]. Further, the TGI worked out at 0.922 µM in [1]; 1.83 µM in assay [2]; 2.6 µM in [3]; 0.32 µM in assay [4]; 3.53 µM in [5]; 1.27 µM in assay [6]. Further, the TGI in [7] was found to be 1.21 µM; in assay [8], 6.87 µM; in assay [9] it was 0.486 µM; in assay [10], 0.435 µM.

Regarding `COc1ccc(C2C=C(c3ccc(Cl)cc3)N=C3SC=C(C)N32)c(Br)c1` (stereo not given), the GI50 in [1] was 3.54 µM; in [2], 2.42 µM; in assay [3] it was 3.45 µM; in assay [4], 2.21 µM; in assay [5], 4.72 µM; in assay [6] it was 11.4 µM. Also, the GI50 was 2.96 µM in assay [7], 2.85 µM in assay [8], 3.45 µM in [9] and 3.8 µM in assay [10]. For the same compound, the TGI in assay [1] is 10.3 µM; in assay [2] it was 12.2 µM; in assay [3], 22 µM; in [4], 7.56 µM; in [5], 22.1 µM; in [6] it was > 100 µM. For the same compound, the TGI in assay [7] came out at 9.29 µM; in assay [8], 10.3 µM; in assay [9], 21.5 µM; in assay [10] it was 15.7 µM.

On to `Cc1cc(Nc2cc(N3CCN(C)CC3)nc(Sc3ccc(NC(=O)C4CC4)cc3)n2)n[nH]1`, for which the GI50 is 0.0456 µM in assay [1]; 5.38 µM in assay [2]; 0.989 µM in [3]; 0.424 µM in assay [4]; 3.98 µM in assay [5]; 0.737 µM in assay [6]. The GI50 in [7] is 4.16 µM; in [8], 1.08 µM; in assay [9], > 10 µM; in [10], 1.53 µM. Besides, the TGI in assay [1] was 7.32 µM; in assay [2] it was > 10 µM; in assay [3] it was 5.77 µM; in assay [4], 3.87 µM; in assay [5], > 10 µM; in assay [6], > 10 µM. The TGI in [7], in assay [8], in assay [9] and in [10] was > 10 µM each time.

Consider `O=c1cc(-c2ccccc2)oc2cc(OC/C(=N/O)c3ccc(F)cc3)ccc12`, for which the GI50 in assay [1] is 26.1 µM; in assay [2], 18.5 µM; in [3] it was 28.6 µM; in assay [4], 20.8 µM; in assay [5], 16.3 µM; in assay [6], 27.6 µM. Besides, the GI50 in assay [7] is 14.9 µM; in assay [8], 48.1 µM; in assay [9], 25.5 µM; in assay [10] it was 14.8 µM. In addition, the TGI in [1], in [2], in [3], in assay [4], in [5] and in [6] was > 50 µM in each case. The TGI in assay [7], in assay [8], in assay [9] and in assay [10] was > 50 µM each time.

Consider `CCN1C[C@]2(COC)[C@H](O)C[C@H](OC)[C@]34C1[C@H]([C@H](OC)[C@H]23)[C@]1(OC(C)=O)[C@H]2[C@@H](OC(=O)c3ccccc3)[C@](O)(C[C@H]24)[C@@H](OC)[C@@H]1O`, for which the TGI in assay [1], in assay [2], in assay [3], in assay [4], in assay [5] and in assay [6] was > 100 µM throughout. In addition, the TGI in assay [7], in assay [8], in assay [9] and in assay [10] was > 100 µM throughout.

On to `Cc1cc(Cl)ccc1Nc1nc(C(F)(F)F)ccc1C(=O)N/N=C/c1ccccc1Cl`, for which the GI50 in assay [1] was 0.727 µM; in [2], 0.438 µM; in [3], 2.14 µM; in assay [4], 0.53 µM; in [5], 1.13 µM; in assay [6] it was 1.3 µM. Moreover, the GI50 was 1.48 µM in assay [7], 0.667 µM in [8], 0.824 µM in [9] and 1.43 µM in [10]. Besides, the TGI in assay [1] is 2.1 µM; in [2], 16.5 µM; in assay [3], > 24.6 µM; in [4], 2.94 µM; in [5], 5.53 µM; in assay [6], 5.07 µM. Further, the TGI worked out at 6.77 µM in assay [7], 6.02 µM in [8], 4.63 µM in assay [9] and 5.36 µM in assay [10].

As to `COc1cccc(/C(C)=N/NC(=O)CSc2nc3ccccc3c(=O)n2CCc2ccc(S(N)(=O)=O)cc2)c1`, the GI50 in assay [1] is 4.13 µM; in assay [2], 18.4 µM; in assay [3], 1.95 µM; in [4], 3.1 µM; in assay [5], 2.23 µM; in [6], 3.29 µM. Also, the GI50 in assay [7] was 2.66 µM; in assay [8], 2.77 µM; in [9], 6.44 µM; in assay [10] it was 8.32 µM. Besides, the TGI in assay [1] is 21.1 µM; in assay [2] it was > 100 µM; in [3] it was 11.9 µM; in assay [4], 11.7 µM; in [5], 5.06 µM; in [6], 13 µM. The TGI was found to be 9.65 µM in assay [7], 7.5 µM in assay [8], 29.3 µM in assay [9] and 33.5 µM in assay [10].

As for `CN1CCN(CCOc2cc(OC3CCOCC3)c3c(Nc4c(Cl)ccc5c4OCO5)ncnc3c2)CC1`, the GI50 in assay [1] was 9.81 µM and 7.76 µM; in assay [2] it was 4.18 µM and 3.26 µM; in [3], 0.679 µM and 0.139 µM; in [4], 1.45 µM and 0.971 µM; in assay [5] it was 6.95 µM and 8.97 µM; in [6], 15.7 µM and > 10 µM. In addition, the GI50 in assay [7] was 0.165 µM and 0.346 µM; in assay [8], 17.5 µM and > 10 µM; in [9], 1.23 µM and 0.286 µM; in assay [10] it was 14.8 µM. For the same compound, the TGI was 24 µM and > 10 µM in assay [1]; 26.6 µM and > 10 µM in [2]; 11.4 µM and 5.64 µM in assay [3]; 16.2 µM and > 10 µM in assay [4]; 24.1 µM and > 10 µM in [5]; 38.9 µM and > 10 µM in assay [6]. Further, the TGI in assay [7] is 2.5 µM and > 10 µM; in [8] it was 33.6 µM and > 10 µM; in [9], 22.3 µM and > 10 µM; in assay [10] it was 28.6 µM.

`NC(=Nc1ccc(N)cc1)C(N)=Nc1ccc(N)cc1`: the GI50 in [1] is 43.5 µM; in assay [2] it was 42.6 µM; in [3], > 100 µM; in assay [4] it was > 100 µM; in assay [5] it was 77.6 µM; in assay [6] it was > 100 µM. Moreover, the GI50 in assay [7] is > 100 µM; in assay [8], 64.1 µM; in assay [9], > 100 µM; in [10] it was > 100 µM. In addition, the TGI in assay [1], in assay [2], in assay [3], in assay [4], in assay [5] and in assay [6] was > 100 µM throughout. Besides, the TGI in assay [7], in assay [8], in [9] and in assay [10] was > 100 µM each time.

For `CCOC(=O)c1cnn2c3ccccc3n(S(=O)(=O)c3ccc(OC)cc3)c12`, the GI50 in assay [1] is 0.289 µM; in assay [2], 0.119 µM; in [3], 0.67 µM; in [4], 0.496 µM; in assay [5], 0.889 µM; in assay [6] it was 2.6 µM. In addition, the GI50 in [7] was 0.338 µM; in assay [8], 0.269 µM; in [9], 13.8 µM; in assay [10] it was 0.574 µM. The TGI was 1.08 µM in assay [1]; > 100 µM in assay [2]; 16 µM in [3]; > 61 µM in assay [4]; > 100 µM in assay [5]; > 100 µM in assay [6]. For the same compound, the TGI in [7] is 38.8 µM; in [8], > 100 µM; in [9], > 100 µM; in assay [10] it was > 100 µM.
